Measured values reported in BindingDB's records for doi:10.1016/j.bmcl.2005.03.003 (Gsk, 2005).

Target: T1, Phenylalanine--tRNA ligase alpha/beta subunit (Staphylococcus aureus, UniProt P68849+Q9AGR3)
T1 sequence (P68849 whole entry): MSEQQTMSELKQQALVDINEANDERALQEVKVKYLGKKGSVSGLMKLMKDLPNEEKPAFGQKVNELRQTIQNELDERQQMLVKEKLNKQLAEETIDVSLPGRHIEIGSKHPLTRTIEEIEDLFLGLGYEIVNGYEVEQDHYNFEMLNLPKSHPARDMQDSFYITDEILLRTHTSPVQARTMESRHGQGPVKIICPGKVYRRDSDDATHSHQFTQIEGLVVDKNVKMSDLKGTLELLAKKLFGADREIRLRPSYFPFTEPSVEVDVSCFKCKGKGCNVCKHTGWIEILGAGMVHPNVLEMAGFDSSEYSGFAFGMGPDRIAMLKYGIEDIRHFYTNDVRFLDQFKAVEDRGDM
T1 sequence (Q9AGR3 whole entry): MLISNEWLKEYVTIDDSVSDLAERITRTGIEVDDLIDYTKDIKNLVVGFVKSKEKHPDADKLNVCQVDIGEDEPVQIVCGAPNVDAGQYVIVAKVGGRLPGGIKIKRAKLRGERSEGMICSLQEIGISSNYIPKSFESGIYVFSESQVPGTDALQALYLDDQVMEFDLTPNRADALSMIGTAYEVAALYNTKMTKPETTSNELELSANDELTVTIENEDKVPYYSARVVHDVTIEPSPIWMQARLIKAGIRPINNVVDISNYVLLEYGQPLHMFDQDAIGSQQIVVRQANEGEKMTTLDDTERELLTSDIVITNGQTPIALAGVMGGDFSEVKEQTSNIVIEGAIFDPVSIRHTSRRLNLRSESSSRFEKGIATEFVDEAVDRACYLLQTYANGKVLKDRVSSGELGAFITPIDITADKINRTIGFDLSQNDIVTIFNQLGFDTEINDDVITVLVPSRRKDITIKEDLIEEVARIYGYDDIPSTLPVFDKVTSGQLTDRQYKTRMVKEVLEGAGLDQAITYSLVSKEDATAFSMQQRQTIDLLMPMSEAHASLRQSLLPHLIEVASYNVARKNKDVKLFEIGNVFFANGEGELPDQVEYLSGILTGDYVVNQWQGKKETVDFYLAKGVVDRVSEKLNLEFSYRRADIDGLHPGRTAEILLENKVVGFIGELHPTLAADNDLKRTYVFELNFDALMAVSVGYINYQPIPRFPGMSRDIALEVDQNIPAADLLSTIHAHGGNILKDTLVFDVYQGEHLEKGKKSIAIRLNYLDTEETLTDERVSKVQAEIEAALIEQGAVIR
Experiment: Homogeneous Enzyme Assay with SPA Beads
Method: The reactions were performed in […] 384-well Packard Optiplates. After 10 min of incubation, the reaction was stopped by addition of a continuously shaken suspension of YSi SPA beads at pH 2. Under acidic conditions, SPA beads bind tRNA aggregates, while radiolabeled amino acid substrate remains in solution. The beads were allowed to settle for at least 45 min and the plates were counted in a microplate scintillation counter TopCount (Packard).

Structure (SMILES)	IC50 (pH 7.9, 37 °C)	IC50 (pH 2)
OC(CNCc1ccccc1N1CCOCC1)c1cccc(C(F)(F)F)c1 (configuration not stated) [2-({[2-(morpholin-4-yl)phenyl]methyl}amino)-1-[3-(trifluoromethyl)phenyl]ethan-1-ol]	> 10000 nM	
O=C(O)CCCOc1ccccc1CNCC(O)c1cc(Br)cs1 (configuration not stated) [4-[2-({[2-(4-bromothiophen-2-yl)-2-hydroxyethyl]amino}methyl)phenoxy]butanoic acid]		43 nM
